Experimental data as given in the supplement of paper PMC10307832.

Experiments:
Assay in all cases: relative viability (nuclei count vs DMSO), 5 days (fraction); higher = more cells survive
AT-7519 + Palbociclib = compound: O=C(NC1CCNCC1)c1n[nH]cc1NC(=O)c1c(Cl)cccc1Cl [AT-7519] + CC(=O)c1c(C)c2cnc(Nc3ccc(N4CCNCC4)cn3)nc2n(C2CCCC2)c1=O [Palbociclib] (partner 0.5 µM)
How it was run: (§1)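 For relative viability, nuclei counts in treated wells were divided by those in vehicle wells. Lung cancer cell lines had been pin-tool dosed in 1536-well plates the day after seeding and cultured for 5 days, then fixed and stained in one step (final 0.05% Triton X-100, 1% formaldehyde, 1 ug/ml Hoechst) and imaged at 4×. Doses were one drug alone or a fixed anchor-drug dose plus five library-drug doses (not always all listed) in √10 steps, and values are duplicate-plate medians.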

AT-7519 + Tozasertib = compound: O=C(NC1CCNCC1)c1n[nH]cc1NC(=O)c1c(Cl)cccc1Cl [AT-7519] + Cc1cc(Nc2cc(N3CCN(C)CC3)nc(Sc3ccc(NC(=O)C4CC4)cc3)n2)n[nH]1 [Tozasertib] (partner 0.1 µM)
How it was run: as §1

AT-7519 + Alpelisib = compound: O=C(NC1CCNCC1)c1n[nH]cc1NC(=O)c1c(Cl)cccc1Cl [AT-7519] + Cc1nc(NC(=O)N2CCC[C@H]2C(N)=O)sc1-c1ccnc(C(C)(C)C(F)(F)F)c1 [Alpelisib] (partner 2 µM)
How it was run: as §1

AT-7519 + Phenformin = compound: O=C(NC1CCNCC1)c1n[nH]cc1NC(=O)c1c(Cl)cccc1Cl [AT-7519] + N=C(N)NC(=N)NCCc1ccccc1 [Phenformin] (partner 250 µM)
How it was run: as §1

| Cell Line | relative viability (AT-7519 + Palbociclib; first compound 0.01 µM) | relative viability (AT-7519 + Palbociclib; first compound 0.03162 µM) | relative viability (AT-7519 + Palbociclib; first compound 0.3162 µM) | relative viability (AT-7519 + Palbociclib; first compound 1 µM) | relative viability (AT-7519 + Tozasertib; first compound 0.01 µM) | relative viability (AT-7519 + Tozasertib; first compound 0.03162 µM) | relative viability (AT-7519 + Tozasertib; first compound 0.3162 µM) | relative viability (AT-7519 + Tozasertib; first compound 1 µM) | relative viability (AT-7519 + Alpelisib; first compound 0.01 µM) | relative viability (AT-7519 + Alpelisib; first compound 0.03162 µM) | relative viability (AT-7519 + Alpelisib; first compound 0.3162 µM) | relative viability (AT-7519 + Alpelisib; first compound 1 µM) | relative viability (AT-7519 + Phenformin; first compound 0.01 µM) | relative viability (AT-7519 + Phenformin; first compound 0.03162 µM) | relative viability (AT-7519 + Phenformin; first compound 0.3162 µM) | relative viability (AT-7519 + Phenformin; first compound 1 µM) |
| --- | --- | --- | --- | --- | --- | --- | --- | --- | --- | --- | --- | --- | --- | --- | --- | --- |
| NCI-H650 | 0.329 | 0.335 | 0.296 | 0.452 | 0.784 | 0.646 | 0.716 | 0.675 | 1.09 | 1 | 1.09 | 1.08 | 0.492 | 0.465 | 0.49 | 0.421 |
| NCI-H661 | 0.382 | 0.432 | 0.4 | 0.256 | 0.378 | 0.352 | 0.392 | 0.314 | 0.488 | 0.445 | 0.758 | 0.506 | 0.277 | 0.27 | 0.249 | 0.189 |
| NCI-H727 | 0.621 | 0.698 | 0.658 | 0.427 | 0.574 | 0.551 | 0.519 | 0.367 | 0.649 | 0.486 | 0.546 | 0.226 | 0.527 | 0.584 | 0.509 | 0.417 |
| NCI-H838 | 0.233 | 0.21 | 0.194 | 0.1 | 0.315 | 0.277 | 0.291 | 0.187 | 1.05 | 0.972 | 0.966 | 0.141 | 0.534 | 0.552 | 0.247 | 0.0953 |
| NCI-H1355 | 0.348 | 0.389 | 0.359 | 0.589 | 0.566 | 0.535 | 0.537 | 0.508 | 0.813 | 0.805 | 0.884 | 0.547 | 0.455 | 0.461 | 0.371 | 0.458 |
| NCI-H1395 | 0.561 | 0.699 | 0.573 | 0.504 | 0.788 | 0.782 | 0.716 | 0.668 | 1.18 | 1.06 | 0.898 | 0.584 | 0.463 | 0.518 | 0.443 | 0.407 |
| NCI-H1437 | 0.282 | 0.319 | 0.295 | 0.251 | 0.418 | 0.399 | 0.402 | 0.34 | 1.05 | 0.931 | 0.816 | 0.477 | 0.322 | 0.328 | 0.292 | 0.194 |
| NCI-H1651 | 0.517 | 0.504 | 0.547 | 0.534 | 0.7 | 0.679 | 0.646 | 0.556 | 1.03 | 0.956 | 0.811 | 0.836 | 0.298 | 0.344 | 0.36 | 0.325 |
| NCI-H1666 | 0.642 | 0.658 | 0.674 | 0.655 | 0.539 | 0.571 | 0.501 | 0.413 | 0.846 | 1.01 | 0.864 | 0.326 | 0.59 | 0.568 | 0.538 | 0.402 |
| NCI-H1734 | 0.288 | 0.319 | 0.353 | 0.167 | 0.296 | 0.261 | 0.25 | 0.102 | 0.645 | 0.655 | 0.613 | 0.434 | 0.385 | 0.342 | 0.323 | 0.175 |
| NCI-H1755 | 0.477 | 0.478 | 0.435 | 0.458 | 0.489 | 0.618 | 0.578 | 0.547 | 0.856 | 0.95 | 1.03 | 0.871 | 0.638 | 0.633 | 0.608 | 0.546 |
| NCI-H1793 | 0.309 | 0.299 | 0.305 | 0.285 | 0.32 | 0.323 | 0.33 | 0.312 | 0.574 | 0.632 | 0.907 | 0.774 | 0.354 | 0.457 | 0.434 | 0.387 |
| NCI-H1915 | 0.592 | 0.509 | 0.608 | 0.39 | 0.482 | 0.461 | 0.456 | 0.347 | 1.06 | 1 | 1.04 | 0.732 | 0.365 | 0.384 | 0.345 | 0.376 |
| NCI-H1944 | 0.314 | 0.322 | 0.292 | 0.268 | 0.25 | 0.24 | 0.249 | 0.213 | 0.86 | 0.787 | 0.799 | 0.74 | 0.234 | 0.207 | 0.197 | 0.182 |
| NCI-H1975 | 0.51 | 0.599 | 0.362 | 0.176 | 0.609 | 0.7 | 0.626 | 0.133 | 0.63 | 0.658 | 0.381 | 0.152 | 0.382 | 0.408 | 0.274 | 0.155 |
| NCI-H1993 | 0.759 | 0.638 | 0.612 | 0.229 | 0.547 | 0.584 | 0.544 | 0.506 | 0.728 | 0.677 | 0.676 | 0.614 | 0.544 | 0.574 | 0.528 | 0.439 |
